Experimental data: the NIST ThermoML archive (doi:10.1016/j.jct.2016.02.009)
Where “and” joins values, the source holds several entries; their conditions need not be identical. Equal values may be shown once.

Test: molar heat capacity at constant pressure
Conditions: 101.33 kPa, Small (less than 1 g) adiabatic calorimetry

CCCCCCCCCCCCCCn1cc[n+](C)c1.O=S(=O)([N-]S(=O)(=O)C(F)(F)F)C(F)(F)F
Conditions | molar heat capacity at constant pressure
180 K, Crystal 2 | 473.1 J/K/mol
180.86 K, Crystal 2 | 474.8 J/K/mol
181.71 K, Crystal 2 | 476.2 J/K/mol
183.59 K, Crystal 2 | 479.9 J/K/mol
184.16 K, Crystal 2 | 480.9 J/K/mol
186.32 K, Crystal 2 | 485.4 J/K/mol
186.61 K, Crystal 2 | 485.8 J/K/mol
189.04 K, Crystal 2 | 490.7 J/K/mol
189.07 K, Crystal 2 | 490.4 J/K/mol
190 K, Crystal 2 | 492.5 J/K/mol
191.51 K, Crystal 2 | 495.2 J/K/mol
191.77 K, Crystal 2 | 496.1 J/K/mol
193.95 K, Crystal 2 | 500 J/K/mol
194.49 K, Crystal 2 | 501.3 J/K/mol
196.39 K, Crystal 2 | 504.9 J/K/mol
197.2 K, Crystal 2 | 507 J/K/mol
198.82 K, Crystal 2 | 509.9 J/K/mol
199.91 K, Crystal 2 | 512.5 J/K/mol
200 K, Crystal 2 | 512.7 J/K/mol
201.26 K, Crystal 2 | 515.7 J/K/mol
202.62 K, Crystal 2 | 518.2 J/K/mol
203.7 K, Crystal 2 | 520.6 J/K/mol
205.33 K, Crystal 2 | 523.7 J/K/mol
206.13 K, Crystal 2 | 525.4 J/K/mol
208.03 K, Crystal 2 | 529.6 J/K/mol
208.56 K, Crystal 2 | 530.7 J/K/mol
210 K, Crystal 2 | 533.6 J/K/mol
210.73 K, Crystal 2 | 535.2 J/K/mol
210.99 K, Crystal 2 | 535.9 J/K/mol
213.42 K, Crystal 2 | 541.2 J/K/mol and 540.9 J/K/mol
215.85 K, Crystal 2 | 546.3 J/K/mol
216.12 K, Crystal 2 | 547 J/K/mol
218.27 K, Crystal 2 | 551.8 J/K/mol
218.8 K, Crystal 2 | 552.9 J/K/mol
220 K, Crystal 2 | 556 J/K/mol
220.69 K, Crystal 2 | 557.4 J/K/mol
221.49 K, Crystal 2 | 559.3 J/K/mol
223.1 K, Crystal 2 | 562.9 J/K/mol
224.17 K, Crystal 2 | 565.7 J/K/mol
225.52 K, Crystal 2 | 568.8 J/K/mol
226.84 K, Crystal 2 | 572.3 J/K/mol
227.93 K, Crystal 2 | 575.1 J/K/mol
229.5 K, Crystal 2 | 579.5 J/K/mol
230 K, Crystal 2 | 580.3 J/K/mol
230.33 K, Crystal 2 | 581.3 J/K/mol
232.15 K, Crystal 2 | 586.6 J/K/mol
232.74 K, Crystal 2 | 587.7 J/K/mol
234.8 K, Crystal 2 | 593.8 J/K/mol
235.14 K, Crystal 2 | 593.7 J/K/mol
237.44 K, Crystal 2 | 600.9 J/K/mol
237.53 K, Crystal 2 | 600.1 J/K/mol
239.92 K, Crystal 2 | 607.2 J/K/mol
240 K, Crystal 2 | 607.6 J/K/mol
240.07 K, Crystal 2 | 608 J/K/mol
242.33 K, Crystal 2 | 613.8 J/K/mol
242.71 K, Crystal 2 | 616.1 J/K/mol
244.72 K, Crystal 2 | 621.4 J/K/mol
245.33 K, Crystal 2 | 624.4 J/K/mol
247.1 K, Crystal 2 | 629.1 J/K/mol
247.95 K, Crystal 2 | 632.9 J/K/mol
249.48 K, Crystal 2 | 637 J/K/mol
250 K, Crystal 2 | 639.3 J/K/mol
250.55 K, Crystal 2 | 642.1 J/K/mol
251.33 K, Crystal 2 | 642.4 J/K/mol
252.65 K, Crystal 2 | 648 J/K/mol
253.15 K, Crystal 2 | 651.7 J/K/mol
253.97 K, Crystal 2 | 653.1 J/K/mol
255.29 K, Crystal 2 | 657.1 J/K/mol
255.74 K, Crystal 2 | 660.9 J/K/mol
256.6 K, Crystal 2 | 662.4 J/K/mol
257.91 K, Crystal 2 | 667.6 J/K/mol
258.31 K, Crystal 2 | 671.7 J/K/mol
259.22 K, Crystal 2 | 673.8 J/K/mol
260 K, Crystal 2 | 677.5 J/K/mol
260.52 K, Crystal 2 | 679.4 J/K/mol
260.86 K, Crystal 2 | 683.4 J/K/mol
261.81 K, Crystal 2 | 685.8 J/K/mol
263.1 K, Crystal 2 | 692.1 J/K/mol
263.41 K, Crystal 2 | 696 J/K/mol
264.39 K, Crystal 2 | 699.3 J/K/mol
265.67 K, Crystal 2 | 706.4 J/K/mol
265.94 K, Crystal 2 | 709.4 J/K/mol
266.97 K, Crystal 2 | 713.8 J/K/mol
268.24 K, Crystal 2 | 721.6 J/K/mol
268.46 K, Crystal 2 | 725 J/K/mol
269.5 K, Crystal 2 | 730 J/K/mol
270 K, Crystal 2 | 734.5 J/K/mol
270.76 K, Crystal 2 | 739.3 J/K/mol
270.95 K, Crystal 2 | 741.9 J/K/mol
272.01 K, Crystal 2 | 748.9 J/K/mol
273.25 K, Crystal 2 | 759 J/K/mol
273.42 K, Crystal 2 | 761.2 J/K/mol
274.48 K, Crystal 2 | 769.6 J/K/mol
275.71 K, Crystal 2 | 781.6 J/K/mol
275.87 K, Crystal 2 | 783.5 J/K/mol
276.93 K, Crystal 2 | 793.6 J/K/mol
278.14 K, Crystal 2 | 807.6 J/K/mol
278.29 K, Crystal 2 | 809.7 J/K/mol
279.35 K, Crystal 2 | 822 J/K/mol
280 K, Crystal 2 | 830.5 J/K/mol
280.54 K, Crystal 2 | 837.6 J/K/mol
280.67 K, Crystal 2 | 840.7 J/K/mol
281.72 K, Crystal 2 | 855 J/K/mol
282.9 K, Crystal 2 | 874.3 J/K/mol
283.02 K, Crystal 2 | 878.3 J/K/mol
284.05 K, Crystal 2 | 895.5 J/K/mol
285.2 K, Crystal 2 | 918.1 J/K/mol
285.31 K, Crystal 2 | 923.3 J/K/mol
286.34 K, Crystal 2 | 943.8 J/K/mol
287.46 K, Crystal 2 | 972.2 J/K/mol
287.56 K, Crystal 2 | 977.1 J/K/mol
288.56 K, Crystal 2 | 1003 J/K/mol
289.65 K, Crystal 2 | 1034 J/K/mol
289.75 K, Crystal 2 | 1039 J/K/mol
290 K, Crystal 2 | 1046 J/K/mol
290.72 K, Crystal 2 | 1067 J/K/mol
291.76 K, Crystal 2 | 1097 J/K/mol
291.87 K, Crystal 2 | 1102 J/K/mol
292.8 K, Crystal 2 | 1118 J/K/mol
293.83 K, Crystal 2 | 1139 J/K/mol
293.96 K, Crystal 2 | 1145 J/K/mol
294.85 K, Crystal 2 | 1153 J/K/mol
295.5 K, Crystal 1 | 1155 J/K/mol
295.5 K, Crystal 2 | 1155 J/K/mol
295.86 K, Crystal 1 | 1154 J/K/mol
296 K, Crystal 1 | 1156 J/K/mol
296.87 K, Crystal 1 | 1144 J/K/mol
297.93 K, Crystal 1 | 998.8 J/K/mol
298.13 K, Crystal 1 | 971.7 J/K/mol
298.15 K, Crystal 1 | 971.6 J/K/mol
299.06 K, Crystal 1 | 853.3 J/K/mol
300 K, Crystal 1 | 851.8 J/K/mol
300.22 K, Crystal 1 | 854.4 J/K/mol
300.42 K, Crystal 1 | 852.5 J/K/mol
301.39 K, Crystal 1 | 866.6 J/K/mol
302.54 K, Crystal 1 | 889.6 J/K/mol
302.77 K, Crystal 1 | 884.7 J/K/mol
303.68 K, Crystal 1 | 937.6 J/K/mol
304.77 K, Crystal 1 | 1081 J/K/mol
304.97 K, Crystal 1 | 1130 J/K/mol
305.73 K, Crystal 1 | 1438 J/K/mol
308.77 K, Crystal 1 | 898.6 J/K/mol
308.77 K, Liquid | 896.2 J/K/mol
310 K, Liquid | 897.4 J/K/mol
320 K, Liquid | 907.2 J/K/mol
330 K, Liquid | 917 J/K/mol
340 K, Liquid | 926.7 J/K/mol
350 K, Liquid | 936.5 J/K/mol
360 K, Liquid | 946.2 J/K/mol
370 K, Liquid | 956 J/K/mol
